Assay results taken from patent publication US8247211B2, “Glycopeptide antibiotics” (American Cyanamid Company, priority 2001, dated 2012).

Experiments:
Experiment in all cases: In vitro antibacterial evaluation: minimum inhibitory concentration (MIC), broth dilution method
Type in all cases: cell-based
[1] = tested on: Escherichia coli
[2] = tested on: Streptococcus sp.; conditions: 18 hours at 35° C.
Procedure, shortened: (§1)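 An MIC is reported for each organism as the least concentration giving inhibition, using broth dilution over 64-0.06 μg/mL with a 5×10^5 CFU/mL inoculum.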

[3] = tested on: Staphylococcus sp.; conditions: 18 hours at 35° C.
Procedure, shortened: as §1

[4] = tested on: Escherichia coli; remark: listed apart in the source
Procedure, shortened: as §1

[5] = tested on: Enterococcus sp.
Procedure, shortened: as §1

[6] = Streptococcus agalactiae (GC 4564)
[7] = Streptococcus pneumoniae (ATCC 6301)
[8] = Streptococcus pneumoniae (GC 1894)
[9] = Streptococcus pneumoniae (GC 4565)
[10] = Streptococcus pyogenes (GC 4563)
[11] = broth dilution, strain ATCC 6301
[12] = Staphylococcus aureus (ATCC 29213)
[13] = Staphylococcus aureus (GC 1131)
[14] = Staphylococcus aureus (GC 3051)
[15] = Staphylococcus aureus (GC 3053)
[16] = Staphylococcus aureus (GC 4541)
[17] = Staphylococcus aureus (GC 4542)
[18] = Staphylococcus aureus (GC 4544)
[19] = Staphylococcus aureus (GC 4545)
[20] = broth dilution, strain ATCC 29213
[21] = Enterococcus faecalis (ATCC 29212)
[22] = Enterococcus faecalis (GC 2242), 18 hours at 35° C.
[23] = Enterococcus faecalis (GC 2691), 18 hours at 35° C.
[24] = Enterococcus faecalis (GC 3059), 18 hours at 35° C.
[25] = Enterococcus faecalis (GC 4552), 18 hours at 35° C.
[26] = Enterococcus faecalis (GC 4553)
[27] = Enterococcus faecalis (GC 4554)
[28] = Enterococcus faecalis (GC 6189)
[29] = broth dilution, 18 hours at 35° C., strain ATCC 29212
[30] = broth dilution, 18 hours at 35° C., strain GC 2242
[31] = broth dilution, 18 hours at 35° C., strain GC 2243
[32] = broth dilution, 18 hours at 35° C., strain GC 2691
[33] = broth dilution, 18 hours at 35° C., strain GC 3059
[34] = broth dilution, 18 hours at 35° C., strain GC 4552
[35] = broth dilution, 18 hours at 35° C., strain GC 4553
[36] = broth dilution, 18 hours at 35° C., strain GC 4554
[37] = broth dilution, 18 hours at 35° C., strain GC 4556
[38] = broth dilution, 18 hours at 35° C., strain GC 4557
[39] = broth dilution, 18 hours at 35° C., strain GC 4558
[40] = broth dilution, 18 hours at 35° C., strain GC 6189

α-O-[(Benzylamino)carbonyl]-cyclo[glycyl-β-methylphenylalanyl-O-(4-O-hexopyranosylhexopyranosyl)tyrosyl-3(2-iminoimidazolidin-4-yl)seryl-3-(3-hexopyranosyl-2-iminoimidazolidin-4-yl)serylseryl] [Example 257]
MIC Escherichia coli (ATCC 25922) [1]: >0.5 µg/mL
MIC Streptococcus agalactiae (GC 4564) [2, 6]: 2 µg/mL
MIC Streptococcus pneumoniae (ATCC 6301) [2, 7]: 0.25 µg/mL
MIC Streptococcus pneumoniae (GC 1894) [2, 8]: 0.25 µg/mL
MIC Streptococcus pneumoniae (GC 4565) [2, 9]: 1 µg/mL
MIC Streptococcus pyogenes (GC 4563) [2, 10]: 0.12 µg/mL
MIC Streptococcus pneumoniae (ATCC 6301) [2, 11]: 0.25 µg/mL
MIC Streptococcus pneumoniae (GC 1894) ([2]; broth dilution, strain GC 1894): 0.25 µg/mL
MIC Streptococcus pyogenes (GC 4563) ([2]; broth dilution, strain GC 4563): 0.12 µg/mL
MIC Streptococcus agalactiae (GC 4564) ([2]; broth dilution, strain GC 4564): 2 µg/mL
MIC Streptococcus pneumoniae (GC 4565) ([2]; broth dilution, strain GC 4565): 1 µg/mL
MIC Coagulase Negative Staphylococcus (GC 4547) [3]: 2 µg/mL
MIC Coagulase Negative Staphylococcus (GC 4548) [3]: 2 µg/mL
MIC Coagulase Negative Staphylococcus (GC 4549) [3]: 2 µg/mL
MIC Coagulase Negative Staphylococcus (GC 4551) [3]: 8 µg/mL
MIC Coagulase Negative Staphylococcus (GC 6257) [3]: 1 µg/mL
MIC Staphylococcus aureus (ATCC 29213) [3, 12]: 0.5 µg/mL
MIC Staphylococcus aureus (GC 1131) [3, 13]: 0.5 µg/mL
MIC Staphylococcus aureus (GC 3051) [3, 14]: 0.5 µg/mL
MIC Staphylococcus aureus (GC 3053) [3, 15]: 0.5 µg/mL
MIC Staphylococcus aureus (GC 4541) [3, 16]: 0.5 µg/mL
MIC Staphylococcus aureus (GC 4542) [3, 17]: 0.5 µg/mL
MIC Staphylococcus aureus (GC 4544) [3, 18]: 0.5 µg/mL
MIC Staphylococcus aureus (GC 4545) [3, 19]: 0.5 µg/mL
MIC Staphylococcus aureus-SMITH (GC 4543) [3]: 0.5 µg/mL
MIC Staphylococcus haemolyticus (GC 4546) [3]: 2 µg/mL
MIC Staphylococcus aureus (ATCC 29213) [3, 20]: 0.5 µg/mL
MIC Staphylococcus aureus (GC 1131) ([3]; broth dilution, strain GC 1131): 0.5 µg/mL
MIC Staphylococcus aureus (GC 3051) ([3]; broth dilution, strain GC 3051): 0.5 µg/mL
MIC Staphylococcus aureus (GC 3053) ([3]; broth dilution, strain GC 3053): 0.5 µg/mL
MIC Staphylococcus aureus (GC 4541) ([3]; broth dilution, strain GC 4541): 0.5 µg/mL
MIC Staphylococcus aureus (GC 4542) ([3]; broth dilution, strain GC 4542): 0.5 µg/mL
MIC Staphylococcus aureus (GC 4544) ([3]; broth dilution, strain GC 4544): 0.5 µg/mL
MIC Staphylococcus aureus (GC 4545) ([3]; broth dilution, strain GC 4545): 0.5 µg/mL
MIC Escherichia coli (GC 4559) [4]: >0.5 µg/mL
MIC Escherichia coli (GC 4560) [4]: 0.5 µg/mL
MIC Enterococcus avium (GC 4558) ([5]; Enterococcus avium (GC 4558)): 0.5 µg/mL
MIC Enterococcus faecalis (ATCC 29212) [5, 21]: 0.5 µg/mL
MIC Enterococcus faecalis (GC 2242) [5, 22]: 0.5 µg/mL
MIC Enterococcus faecalis (GC 2691) [5, 23]: 0.5 µg/mL
MIC Enterococcus faecalis (GC 3059) [5, 24]: 0.5 µg/mL
MIC Enterococcus faecalis (GC 4552) [5, 25]: >0.5 µg/mL
MIC Enterococcus faecalis (GC 4553) [5, 26]: 0.5 µg/mL
MIC Enterococcus faecalis (GC 4554) [5, 27]: >0.5 µg/mL
MIC Enterococcus faecalis (GC 6189) [5, 28]: 0.5 µg/mL
MIC Enterococcus faecium (GC 2243) ([5]; Enterococcus faecium (GC 2243)): 16 µg/mL
MIC Enterococcus faecium (GC 4556) ([5]; Enterococcus faecium (GC 4556)): 16 µg/mL
MIC Enterococcus faecium (GC 4557) ([5]; Enterococcus faecium (GC 4557)): 2 µg/mL
MIC Enterococcus faecalis (ATCC 29212) [5, 29]: 0.5 µg/mL
MIC Enterococcus faecalis (GC 2242) [5, 30]: 0.5 µg/mL
MIC Enterococcus faecium (GC 2243) [5, 31]: 16 µg/mL
MIC Enterococcus faecalis (GC 2691) [5, 32]: 0.5 µg/mL
MIC Enterococcus faecalis (GC 3059) [5, 33]: 0.5 µg/mL
MIC Enterococcus faecalis (GC 4552) [5, 34]: >0.5 µg/mL
MIC Enterococcus faecalis (GC 4553) [5, 35]: 0.5 µg/mL
MIC Enterococcus faecalis (GC 4554) [5, 36]: >0.5 µg/mL
MIC Enterococcus faecium (GC 4556) [5, 37]: 16 µg/mL
MIC Enterococcus faecium (GC 4557) [5, 38]: 2 µg/mL
MIC Enterococcus avium (GC 4558) [5, 39]: 0.5 µg/mL
MIC Enterococcus faecalis (GC 6189) [5, 40]: 0.5 µg/mL

α-O-[(Benzylamino)carbonyl]-cyclo[glycyl-β-methylphenylalanyl-O-(4-O-hexopyranosylhexopyranosyl)tyrosyl-3-(2-iminoimidazolidin-4-yl)seryl-3-(3-hexopyranosyl-2-iminoimidazolidin-4-yl)serylseryl] [Example 257a]
MIC Escherichia coli (ATCC 25922) [1]: >0.5 µg/mL
MIC Streptococcus agalactiae (GC 4564) [2, 6]: 8 µg/mL
MIC Streptococcus pneumoniae (ATCC 6301) [2, 7]: 1 µg/mL
MIC Streptococcus pneumoniae (GC 1894) [2, 8]: 1 µg/mL
MIC Streptococcus pneumoniae (GC 4565) [2, 9]: 4 µg/mL
MIC Streptococcus pyogenes (GC 4563) [2, 10]: 0.12 µg/mL
MIC Streptococcus pneumoniae (ATCC 6301) [2, 11]: 1 µg/mL
MIC Streptococcus pneumoniae (GC 1894) ([2]; broth dilution, strain GC 1894): 1 µg/mL
MIC Streptococcus pyogenes (GC 4563) ([2]; broth dilution, strain GC 4563): 0.12 µg/mL
MIC Streptococcus agalactiae (GC 4564) ([2]; broth dilution, strain GC 4564): 8 µg/mL
MIC Streptococcus pneumoniae (GC 4565) ([2]; broth dilution, strain GC 4565): 4 µg/mL
MIC Coagulase Negative Staphylococcus (GC 4547) [3]: 8 µg/mL
MIC Coagulase Negative Staphylococcus (GC 4548) [3]: 8 µg/mL
MIC Coagulase Negative Staphylococcus (GC 4549) [3]: 8 µg/mL
MIC Coagulase Negative Staphylococcus (GC 4551) [3]: 32 µg/mL
MIC Coagulase Negative Staphylococcus (GC 6257) [3]: 4 µg/mL
MIC Staphylococcus aureus (ATCC 29213) [3, 12]: 0.5 µg/mL
MIC Staphylococcus aureus (GC 1131) [3, 13]: 0.5 µg/mL
MIC Staphylococcus aureus (GC 3051) [3, 14]: 0.5 µg/mL
MIC Staphylococcus aureus (GC 3053) [3, 15]: 0.5 µg/mL
MIC Staphylococcus aureus (GC 4541) [3, 16]: 0.5 µg/mL
MIC Staphylococcus aureus (GC 4542) [3, 17]: 0.5 µg/mL
MIC Staphylococcus aureus (GC 4544) [3, 18]: 0.5 µg/mL
MIC Staphylococcus aureus (GC 4545) [3, 19]: 0.5 µg/mL
MIC Staphylococcus aureus-SMITH (GC 4543) [3]: 0.5 µg/mL
MIC Staphylococcus haemolyticus (GC 4546) [3]: 8 µg/mL
MIC Staphylococcus aureus (ATCC 29213) [3, 20]: 0.5 µg/mL
MIC Staphylococcus aureus (GC 1131) ([3]; broth dilution, strain GC 1131): 0.5 µg/mL
MIC Staphylococcus aureus (GC 3051) ([3]; broth dilution, strain GC 3051): 0.5 µg/mL
MIC Staphylococcus aureus (GC 3053) ([3]; broth dilution, strain GC 3053): 0.5 µg/mL
MIC Staphylococcus aureus (GC 4541) ([3]; broth dilution, strain GC 4541): 0.5 µg/mL
MIC Staphylococcus aureus (GC 4542) ([3]; broth dilution, strain GC 4542): 0.5 µg/mL
MIC Staphylococcus aureus (GC 4544) ([3]; broth dilution, strain GC 4544): 0.5 µg/mL
MIC Staphylococcus aureus (GC 4545) ([3]; broth dilution, strain GC 4545): 0.5 µg/mL
MIC Escherichia coli (GC 4559) [4]: >0.5 µg/mL
MIC Escherichia coli (GC 4560) [4]: 0.5 µg/mL
MIC Enterococcus avium (GC 4558) ([5]; Enterococcus avium (GC 4558)): >0.5 µg/mL
MIC Enterococcus faecalis (ATCC 29212) [5, 21]: >0.5 µg/mL
MIC Enterococcus faecalis (GC 2242) [5, 22]: >0.5 µg/mL
MIC Enterococcus faecalis (GC 2691) [5, 23]: 0.5 µg/mL
MIC Enterococcus faecalis (GC 3059) [5, 24]: >0.5 µg/mL
MIC Enterococcus faecalis (GC 4552) [5, 25]: >0.5 µg/mL
MIC Enterococcus faecalis (GC 4553) [5, 26]: >0.5 µg/mL
MIC Enterococcus faecalis (GC 4554) [5, 27]: >0.5 µg/mL
MIC Enterococcus faecalis (GC 6189) [5, 28]: >0.5 µg/mL
MIC Enterococcus faecium (GC 2243) ([5]; Enterococcus faecium (GC 2243)): >32 µg/mL
MIC Enterococcus faecium (GC 4556) ([5]; Enterococcus faecium (GC 4556)): >32 µg/mL
MIC Enterococcus faecium (GC 4557) ([5]; Enterococcus faecium (GC 4557)): 8 µg/mL
MIC Enterococcus faecalis (ATCC 29212) [5, 29]: >0.5 µg/mL
MIC Enterococcus faecalis (GC 2242) [5, 30]: >0.5 µg/mL
MIC Enterococcus faecium (GC 2243) [5, 31]: >32 µg/mL
MIC Enterococcus faecalis (GC 2691) [5, 32]: 0.5 µg/mL
MIC Enterococcus faecalis (GC 3059) [5, 33]: >0.5 µg/mL
MIC Enterococcus faecalis (GC 4552) [5, 34]: >0.5 µg/mL
MIC Enterococcus faecalis (GC 4553) [5, 35]: >0.5 µg/mL
MIC Enterococcus faecalis (GC 4554) [5, 36]: >0.5 µg/mL
MIC Enterococcus faecium (GC 4556) [5, 37]: >32 µg/mL
MIC Enterococcus faecium (GC 4557) [5, 38]: 8 µg/mL
MIC Enterococcus avium (GC 4558) [5, 39]: >0.5 µg/mL
MIC Enterococcus faecalis (GC 6189) [5, 40]: >0.5 µg/mL
